Molecules are shown by their SMILES. pIC50: −log10 of the molar value.

In this assay the target is T1, Human SGLT2 (hSGLT2) (Homo sapiens, UniProt P31639).
T1 construct: expressed in transfected cells
T1 sequence (P31639 1-672): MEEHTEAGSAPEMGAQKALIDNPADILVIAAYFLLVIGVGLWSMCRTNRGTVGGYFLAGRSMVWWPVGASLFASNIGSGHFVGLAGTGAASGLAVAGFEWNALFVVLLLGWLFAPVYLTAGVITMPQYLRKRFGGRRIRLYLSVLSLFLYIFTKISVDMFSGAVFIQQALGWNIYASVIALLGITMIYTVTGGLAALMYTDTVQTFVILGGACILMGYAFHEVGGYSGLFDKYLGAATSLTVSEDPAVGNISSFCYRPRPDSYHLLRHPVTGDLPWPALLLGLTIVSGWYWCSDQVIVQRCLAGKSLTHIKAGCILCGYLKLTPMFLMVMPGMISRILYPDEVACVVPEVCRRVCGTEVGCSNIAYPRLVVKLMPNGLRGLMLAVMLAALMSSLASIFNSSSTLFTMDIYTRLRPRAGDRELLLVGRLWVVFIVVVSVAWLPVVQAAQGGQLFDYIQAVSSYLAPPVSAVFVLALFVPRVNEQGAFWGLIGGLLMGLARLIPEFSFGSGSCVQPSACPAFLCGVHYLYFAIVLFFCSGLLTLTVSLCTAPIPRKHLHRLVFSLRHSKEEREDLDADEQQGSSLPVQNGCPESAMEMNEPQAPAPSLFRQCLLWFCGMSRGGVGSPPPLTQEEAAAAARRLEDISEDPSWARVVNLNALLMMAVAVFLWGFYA
Nature of the assay: Sodium-dependent glucose transport (14C-AMG uptake) assay in CHO cells stably expressing hSGLT2. Conditions: CHO cells expressing hSGLT2, 14C-AMG uptake, 37° C. for 2 h; single determinations; read-out: hSGLT2 Inhibitory Activity IC50. The assay is classed as cell-based. An excerpt:
Cloning and Cell Line Construction for Human SGLT2
Human SGLT2 (hSGLT2) gene was amplified by PCR from cDNA-Human Adult Normal Tissue Kidney (Invitrogen). The hSGLT2 sequence was cloned into pcDNA3.1(+) for mammalian expression and were stably transfected into chinese hamster ovary (CHO) cells. SGLT2-expressing clones were selected based on resistance to G418 antibiotic (Geneticin) and activity in the ^14C-α-methyl-D-glucopyranoside (^14C-AMG) uptake assay.
Inhibitory Effects on Human SGLT2 Activities
For sodium-dependent glucose transport assay, cells expressing hSGLT2 were seeded into a 96-well culture plate at a density of 5×10^4 cells/well in RPMI medium 1640 containing 10% fetal bovine serum. The cells were used 1 day after plating. They were incubated in pretreatment buffer (10 mM HEPES, 5 mM Tris, 140 mM choline chloride, 2 mM KCl, 1 mM CaCl2, and 1 mM MgCl2, pH 7.4) at 37° C. for 10 min. They were then incubated in uptake buffer (10 mM HEPES, 5 mM Tris, 140 mM NaCl, 2 mM KCl, 1 mM CaCl2, 1 mM MgCl2, and 1 mM ^14C-nonlabeled AMG, pH 7.4) containing ^14C-labeled (8 μM) and inhibitor or dimethylsulfoxide (DMSO) vehicle at 37° C. for 2 h. Cells were washed twice with washing buffer (pretreatment buffer containing 10 mM AMG at room temperature) and then the radioactivity was measured using a liquid scintillation counter. IC50 was determined by nonlinear regression analysis using GraphPad PRISM [Katsuno, K. et al. J. Pharmacol. Exp. Ther. 2007, 320, 323-330; Han, S. et al. Deabetes, 2008, 57, 1723-1729].
For orientation: pIC50 means the negative decadic logarithm of the IC50, by convention in mol/L. Consider `CCCCc1cnc(Cc2cc([C@@H]3O[C@H](CO)[C@@H](O)[C@H](O)[C@H]3O)ccc2Cl)s1` [Example 13, (2S,3R,4R,5S,6R)-2-(3-((5-Butylthiazol-2-yl)methyl)-4-chlorophenyl)-6-(hydroxymethyl)-tetrahydro-2H-pyran-3,4,5-triol], for which the pIC50 was 6.92.

With `CCCCCCc1cnc(Cc2cc([C@@H]3O[C@H](CO)[C@@H](O)[C@H](O)[C@H]3O)c(OC)cc2Cl)s1` [Example 75, (2S,3R,4R,5S,6R)-2-(4-Chloro-5-((5-hexylthiazol-2-yl)methyl)-2-methoxyphenyl)-6-(hydroxymethyl)tetrahydro-2H-pyran-3,4,5-triol], the pIC50 is 8.35. Regarding `OC[C@H]1O[C@@H](c2ccc(C(F)(F)F)c(Cc3ncc(-c4ccc(F)cc4)s3)c2)[C@H](O)[C@@H](O)[C@@H]1O` [Example 52, (2S,3R,4R,5S,6R)-2-(3-((5-(4-Fluorophenyl)thiazol-2-yl)methyl)-4-(trifluoromethyl)phenyl)-6-(hydroxymethyl)tetrahydro-2H-pyran-3,4,5-triol], the pIC50 is 7.06. The figure for `COc1c(Cc2ncc(C3CCCCC3)s2)cc([C@@H]2O[C@H](CO)[C@@H](O)[C@H](O)[C@H]2O)c2ccccc12` [Example 102, (2S,3R,4R,5S,6R)-2-(3-((5-Cyclohexylthiazol-2-yl)methyl)-4-methoxynaphthalen-1-yl)-6-(hydroxymethyl)-tetrahydro-2H-pyran-3,4,5-triol] is 7.30. The figure for `CCOc1cnc(Cc2cc([C@@H]3O[C@H](CO)[C@@H](O)[C@H](O)[C@H]3O)ccc2Cl)s1` [Example 21, (2S,3R,4R,5S,6R)-2-(4-Chloro-3-((5-ethoxythiazol-2-yl)methyl)phenyl)-6-(hydroxymethyl)-tetrahydro-2H-pyran-3,4,5-triol] is 7.73; for `COc1c(Cc2ncc(-c3ccco3)s2)cc([C@@H]2O[C@H](CO)[C@@H](O)[C@H](O)[C@H]2O)c2ccccc12` [Example 95, (2S,3R,4R,5S,6R)-2-(3-((5-(Furan-2-yl)thiazol-2-yl)methyl)-4-methoxynaphthalen-1-yl)-6-(hydroxymethyl)-tetrahydro-2H-pyran-3,4,5-triol] it is 8.53; for `OC[C@H]1O[C@@H](c2ccc(Cl)c(Cc3cnc(-c4ccc(Cl)s4)s3)c2)[C@H](O)[C@@H](O)[C@@H]1O` [Example 189, (2S,3R,4R,5S,6R)-2-(4-Chloro-3-((2-(5-chlorothiophen-2-yl)thiazol-5-yl)methyl)phenyl)-6-(hydroxymethyl)tetrahydro-2H-pyran-3,4,5-triol] it is 8.06.

`CCCCOC(=O)OC[C@H]1O[C@@H](c2ccc(Cl)c(Cc3ncc(-c4ccco4)s3)c2)[C@H](O)[C@@H](O)[C@@H]1O` [Example 161, Butyl ((2R,3S,4R,5R,6S)-6-(4-chloro-3-((5-(furan-2-yl)thiazol-2-yl)methyl)phenyl)-3,4,5-trihydroxytetrahydro-2H-pyran-2-yl)methyl carbonate]: the pIC50 was 8.29. The figure for `OC[C@H]1O[C@@H](c2cc(Cc3ncc(C4CCCC4)s3)c(Cl)cc2Cl)[C@H](O)[C@@H](O)[C@@H]1O` [Example 68, (2S,3R,4R,5S,6R)-2-(2,4-Dichloro-5-((5-cyclopentylthiazol-2-yl)methyl)phenyl)-6-(hydroxymethyl)tetrahydro-2H-pyran-3,4,5-triol] is 7.48; for `CCCCCOc1cnc(Cc2cc([C@@H]3O[C@H](CO)[C@@H](O)[C@H](O)[C@H]3O)ccc2Cl)s1` [Example 23, (2S,3R,4R,5S,6R)-2-(4-Chloro-3-((5-(pentyloxy)thiazol-2-yl)methyl)phenyl)-6-(hydroxymethyl)-tetrahydro-2H-pyran-3,4,5-triol] it is 8.09; for `OC[C@H]1O[C@@H](c2ccc(Cl)c(Cc3cnc(-c4cscn4)s3)c2)[C@H](O)[C@@H](O)[C@@H]1O` [Example 193, (2S,3R,4R,5S,6R)-2-(3-(2,4′-Bithiazol-5-ylmethyl)-4-chlorophenyl)-6-(hydroxymethyl)tetrahydro-2H-pyran-3,4,5-triol] it is 7.75. Next, `CCOc1cc(Cl)c(Cc2ncc(-c3ccccc3)s2)cc1[C@@H]1O[C@H](CO)[C@@H](O)[C@H](O)[C@H]1O` [Example 81, (2S,3R,4R,5S,6R)-2-(4-Chloro-2-ethoxy-5-((5-phenylthiazol-2-yl)methyl)phenyl)-6-(hydroxymethyl)tetrahydro-2H-pyran-3,4,5-triol]: 8.54. Next, `CCCCCCc1cnc(Cc2cc([C@@H]3O[C@H](CO)[C@@H](O)[C@H](O)[C@H]3O)c(Cl)cc2Cl)s1` [Example 67, (2S,3R,4R,5S,6R)-2-(2,4-Dichloro-5-((5-hexylthiazol-2-yl)methyl)phenyl)-6-(hydroxymethyl)tetrahydro-2H-pyran-3,4,5-triol]: 7.41; `CCOc1cc(Cl)c(Cc2ncc(-c3cccs3)s2)cc1[C@@H]1O[C@H](CO)[C@@H](O)[C@H](O)[C@H]1O` [Example 79, (2S,3R,4R,5S,6R)-2-(4-Chloro-2-ethoxy-5-((5-(thiophen-2-yl)thiazol-2-yl)methyl)phenyl)-6-(hydroxymethyl)tetralrydro-2H-pyran-3,4,5-triol]: 8.37. For the compound `CCCCCCCc1cnc(Cc2cc([C@@H]3O[C@H](CO)[C@@H](O)[C@H](O)[C@H]3O)c3ccccc3c2OC)s1` [Example 100, (2S,3R,4R,5S,6R)-2-(3-((5-Heptylthiazol-2-yl)methyl)-4-methoxynaphthalen-1-yl)-6-(hydroxymethyl)-tetrahydro-2H-pyran-3,4,5-triol], the pIC50 was 8.14.

On to `Cc1ccc(-c2cnc(Cc3cc([C@@H]4O[C@H](CO)[C@@H](O)[C@H](O)[C@H]4O)ccc3C)s2)cc1` [Example 36, (2R,3S,4R,5R,6S)-2-(Hydroxymethyl)-6-(4-methyl-3-((5-p-tolylthiazol-2-yl)methyl)phenyl)tetrahydro-2H-pyran-3,4,5-triol], for which the pIC50 is 7.67. Next, `CCOc1cnc(Cc2cc([C@@H]3O[C@H](CO)[C@@H](O)[C@H](O)[C@H]3O)c3ccccc3c2O)s1` [Example 128, (2S,3R,4R,5S,6R)-2-(3-((5-Ethoxythiazol-2-yl)methyl)-4-hydroxynaphthalen-1-yl)-6-(hydroxymethyl)-tetrahydro-2H-pyran-3,4,5-triol]: 6.94; `OC[C@H]1O[C@@H](c2ccc(Cl)c(Cc3ncc(C4CCCC4)s3)c2)[C@H](O)[C@@H](O)[C@@H]1O` [Example 19, (2S,3R,4R,5S,6R)-2-(4-Chloro-3-((5-cyclopentylthiazol-2-yl)methyl)phenyl)-6-(hydroxymethyl)-tetrahydro-2H-pyran-3,4,5-triol]: 8.01; `COc1cc(Cl)c(Cc2ncc(-c3ccsc3)s2)cc1[C@@H]1O[C@H](CO)[C@@H](O)[C@H](O)[C@H]1O` [Example 72, (2S,3R,4R,5S,6R)-2-(4-Chloro-2-methoxy-5-((5-(thiophen-3-yl)thiazol-2-yl)methyl)phenyl)-6-(hydroxymethyl)tetrahydro-2,1-pyran-3,4,5-triol]: 8.89. Next, `OC[C@H]1O[C@@H](c2ccc(C(F)(F)F)c(Cc3ncc(-c4cccs4)s3)c2)[C@H](O)[C@@H](O)[C@@H]1O` [Example 49, (2R,3S,4R,5R,6S)-2-(Hydroxymethyl)-6-(3-((5-(thiophen-2-yl)thiazol-2-yl)methyl)-4-(trifluoromethyl)phenyl)tetrahydro-2H-pyran-3,4,5-triol]: 7.77.

Values taken from US8586550B2, “Thiazole derivatives as SGLT2 inhibitors and pharmaceutical composition comprising same” (Green Cross Corporation, priority 2010, dated 2013).
